One data set relates to H1650 lung cancer cells. Kind of data set: Cell viability assay (MTT, IC50 determination). It counts as cell-based. The note with it: Homo sapiens, NCI-H1650; H1650 lung cancer cells, MTT, 48 hours after drug treatment; read-out: H1650 cell viability IC50. The method, then: Cell viability assays were performed according to Denizot, F. and R. Lang, Journal of Immunological Methods, 1986. 89(22): p. 271-277. H1650 lung cancer cells were plated at 150,000 cells per well in a 12 well plate. Twenty-four hours after plating, cells were treated as described with increasing concentrations of drug and control. Forty-eight hours after drug treatment, cells were treated with 100 μL of 3-(4,5-Dimethylthiazol-2-yl)-2,5-diphenyltetrazolium bromide (MTT) and incubated for 2 hours at 37 C. The MTT solution was subsequently replaced with 300 μL of n-propyl alcohol and re-aliquoted to a 96 well plate. Spectrophotometric analysis of each solution was performed using a 96 well plate reader at 600 nm in triplicate.

The subject of data set [1] is lung cancer cell line H358. Put plainly: In vivo cancer model: subcutaneous H358 xenograft, tumor volume (Example 2a). The note with it: 5 mg/kg BID oral gavage. Also on record: species or system BALB/c nu/nu mice. The method, then:
(§1) To assess the in vivo effects of the compounds, subcutaneous xenograft of lung cancer cell line H358 was generated. Cells (5×10^6) were injected into the right flank of 6- to 8-week-old male BALB/c nu/nu mice (Charles River, Wilmington, Mass.). Tumor volume was assessed twice a week by caliper measurement. Mice were randomized to treatment groups based on initial tumor volume average of 200 mm^3 per group. Mice were dosed by oral gavage with 5 mg/kg Example 2a BID. Mouse tumors were measured twice a week for the duration of the study. Mouse body weights were recorded weekly and percentage of mice body weights during treatment was calculated as: weight at each time point/initial weight×100.

Data set [2] in a line: In vivo cancer model: body weights and signs of toxicity (Example 2a). On the set-up: species or system BALB/c nu/nu mice. The note with it: 5 mg/kg BID oral gavage. As for the experimental part: as §1
The test system of another data set is H358 cell line. Put plainly: In vivo H358 xenograft model, tumor volume (Example 17b). On the set-up: species or system BALB/c nu/nu mice. The conditions noted are these: 5 mg/kg BID oral gavage, treatment day 32. As for the experimental part:
(§2) To evaluate the efficacy of Example 17b in vivo, xenograft model was utilized using the H358 cell line. H358 cells (1×10^7) were injected into the right flank of 6- to 8-week-old male BALB/c nu/nu mice. Mice were randomized to treatment groups based on initial tumor volume. Tumor volume was assessed twice a week by caliper measurement, until volumes reached an average of 200 mm^3. Mice were treated by oral gavage with vehicle control or Example 17b (5 mg/kg) BID. The treatment schedules were initiated, and the mouse tumors were measured every other day for the duration of the study. Mice body weights were recorded weekly and percentage of mice body weights during treatment was calculated as: weight at each time point/initial weight×100.

A short description of data set [3]: In vivo H358 xenograft model: body weights and signs of toxicity (Example 17b). Also on record: species or system BALB/c nu/nu mice. The note with it: 5 mg/kg BID oral gavage. As for the experimental part: as §2

As to `O=S(=O)(N[C@@H]1COC[C@H](N2c3ccccc3Oc3ccccc32)[C@H]1O)c1ccc(OC(F)(F)F)cc1` [Example 2a, N-((3R,4R,5S)-4-hydroxy-5-(10H-phenoxazin-10-yl)tetrahydro-2H-pyran-3-yl)-4-(trifluoromethoxy)benzenesulfonamide], the half-maximal inhibitory concentration (IC50) in the data set with H1650 lung cancer cells is 15 µM. Besides, in data set [1] (treatment day 17), the “% T/C (mean tumor volume)” value was 28.82%, the “% T/C (median tumor volume)” value worked out at 25.82% and the “Inhibition of tumor growth versus vehicle control” value was “statistically significant inhibition of tumor (T) growth versus vehicle control (C)”. For the same compound, in data set [1] (treatment day 17, in mm³), the “Mean Tumor Volume (T)” value was 208.64 and the “Median Tumor Volume (T)” value turned out to be 191.78. In addition, in data set [2], the “Signs of toxicity (mucous diarrhea, abdominal stiffness and weight loss)” value is recorded as “no adverse signs were observed”; the “Toxicity as judged from animal body weights versus vehicle control” value is listed as “No statistically significant toxicity was observed”. Also, in data set [2] (H358 xenograft mice), the “% T/C (mean body weight)” value is 96.36%, the “% T/C (median body weight)” value came to 96.92%, the Mean body weight is 30.21 g and the Median body weight is given as 29.95 g.

For the compound `O=S(=O)(N[C@H]1CNC[C@@H](N2c3ccccc3Oc3ccccc32)[C@@H]1O)c1ccc(OC(F)(F)F)cc1` [Example 17b, N-((3S,4S,5R)-4-hydroxy-5-(10H-phenoxazin-10-yl)piperidin-3-yl)-4-(trifluoromethoxy)benzenesulfonamide], the IC50 in the data set on H1650 lung cancer cells was determined as 10 µM. For the same compound, in the data set with H358 cell line, the “% T/C (mean tumor volume)” value came to 55%, the “% T/C (median tumor volume)” value is on record as 54%, the “Inhibition of tumor growth versus vehicle control” value is listed as “statistically significant inhibition of tumor (T) growth versus vehicle control (C)” and the “Mean Tumor Volume (T)” value is listed as 562 mm^3. For the same compound, in the data set on H358 cell line, the “Median Tumor Volume (T)” value came out at 520 mm^3. Also, in data set [3], the “Signs of toxicity (mucous diarrhea, abdominal stiffness and weight loss)” value is listed as “no adverse signs were observed”; the “Toxicity as judged from animal body weights versus vehicle control” value is “No statistically significant toxicity was observed”. Also, in data set [3] (H358 xenograft mice), the “% T/C (mean body weight)” value came to 100.5%, the “% T/C (median body weight)” value is given as 99.4%, the Mean body weight is 34.41 g and the Median body weight came out at 34.1 g.

In general, IC50 refers to the point on the concentration scale where inhibition reaches its midpoint.

(Values after patent publication US10759790B2, “Heterocyclic constrained tricyclic sulfonamides as anti-cancer agents” (ICAHN SCHOOL OF MEDICINE AT MOUNT SINAI, priority 2015, dated 2020).)
